In PubChem BioAssay (NCI):
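Cultured in 96-well plates, cells were exposed to test compound for 48 hours across five concentrations. GI50 marks 50% less growth. TGI: concentration producing complete growth inhibition.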

Assays:
Experiment in all cases: inhibition of tumour cell growth, NCI panel, 48 h
[1] = tested on: 786-0 renal
[2] = tested on: A498 renal
[3] = tested on: A549 NSCLC
[4] = tested on: ACHN renal
[5] = tested on: BT-549 breast
[6] = tested on: CAKI-1 renal
[7] = tested on: CCRF-CEM leukemia
[8] = tested on: COLO 205 colon
[9] = tested on: DU-145 prostate
[10] = tested on: EKVX NSCLC
[11] = tested on: HCC-2998 colon
[12] = tested on: HCT-116 colon
[13] = tested on: HCT-15 colon
[14] = tested on: HL-60(TB) leukemia
[15] = tested on: HOP-62 NSCLC
[16] = tested on: HOP-92 NSCLC
[17] = tested on: HS 578T breast
[18] = tested on: HT29 colon
[19] = tested on: IGROV1 ovarian
[20] = tested on: K-562 leukemia
[21] = tested on: KM12 colon
[22] = tested on: LOX IMVI melanoma
[23] = tested on: M14 melanoma
[24] = tested on: MALME-3M melanoma
[25] = tested on: MCF7 breast
[26] = tested on: MDA-MB-231 breast
[27] = tested on: MDA-MB-435
[28] = tested on: MOLT-4 leukemia
[29] = tested on: NCI-H226 lung
[30] = tested on: NCI-H23 lung
[31] = tested on: NCI-H460 lung
[32] = tested on: NCI-H522 lung
[33] = tested on: NCI/ADR-RES ovarian
[34] = tested on: OVCAR-3 ovarian
[35] = tested on: OVCAR-4 ovarian
[36] = tested on: OVCAR-5 ovarian
[37] = tested on: OVCAR-8 ovarian
[38] = tested on: PC-3 prostate
[39] = tested on: RPMI-8226 leukemia
[40] = tested on: RXF 393 renal
[41] = tested on: SF-268 CNS
[42] = tested on: SF-295 CNS
[43] = tested on: SF-539 CNS
[44] = tested on: SK-MEL-2 melanoma
[45] = tested on: SK-MEL-28 melanoma
[46] = tested on: SK-MEL-5 melanoma
[47] = tested on: SK-OV-3 ovarian
[48] = tested on: SN12C renal
[49] = tested on: SNB-19 CNS
[50] = tested on: SNB-75 CNS
[51] = tested on: SR leukemia
[52] = tested on: SW-620 colon
[53] = tested on: T-47D breast
[54] = tested on: TK-10 renal
[55] = tested on: U251 CNS
[56] = tested on: UACC-257 melanoma
[57] = tested on: UACC-62 melanoma
[58] = tested on: UO-31 renal

Cc1cc2c([nH]1)CSc1cc(S(=O)(=O)c3ccccc3)c(=O)[nH]c1-2
GI50 [1]: 14.9 µM
TGI [1]: > 100 µM
GI50 [2]: 22.1 µM
TGI [2]: 69.7 µM
GI50 [3]: 43.8 µM
TGI [3]: > 100 µM
GI50 [4]: 13.3 µM
TGI [4]: > 100 µM
GI50 [5]: 0.732 µM
TGI [5]: > 74.4 µM
GI50 [6]: 4.4 µM
TGI [6]: > 58.4 µM
GI50 [7]: 0.452 µM
TGI [7]: > 100 µM
GI50 [8]: 14.1 µM
TGI [8]: 35.2 µM
GI50 [9]: 0.722 µM
TGI [9]: 13.2 µM
GI50 [10]: 21 µM
TGI [10]: > 100 µM
GI50 [11]: 3.42 µM
TGI [11]: > 42.6 µM
GI50 [12]: 0.368 µM
TGI [12]: 10.9 µM
GI50 [13]: 0.392 µM
TGI [13]: > 100 µM
GI50 [14]: 0.249 µM
GI50 [15]: 2.09 µM
TGI [15]: > 100 µM
GI50 [16]: 0.139 µM
TGI [16]: 1.32 µM
GI50 [17]: 1.8 µM
TGI [17]: 9.43 µM
GI50 [18]: 0.316 µM
GI50 [19]: 0.82 µM
TGI [19]: > 95.5 µM
GI50 [20]: 2.56 µM
TGI [20]: > 100 µM
GI50 [21]: 0.461 µM
TGI [21]: 5.24 µM
GI50 [22]: 0.61 µM
TGI [22]: > 73.2 µM
GI50 [23]: 0.289 µM
TGI [23]: 2.16 µM
GI50 [24]: 0.568 µM
TGI [24]: 75.9 µM
GI50 [25]: 0.263 µM
TGI [25]: 16.1 µM
GI50 [26]: 1.63 µM
TGI [26]: > 100 µM
GI50 [27]: 0.197 µM
TGI [27]: 0.46 µM
GI50 [28]: 2.74 µM
TGI [28]: > 100 µM
GI50 [29]: 14.6 µM
TGI [29]: > 88.7 µM
GI50 [30]: 1.04 µM
TGI [30]: 60.6 µM
GI50 [31]: 20.6 µM
TGI [31]: 68.5 µM
GI50 [32]: 3.77 µM
TGI [32]: 36.7 µM
GI50 [33]: 0.445 µM
TGI [33]: 2.17 µM
GI50 [34]: 0.246 µM
TGI [34]: 0.615 µM
GI50 [35]: 0.553 µM
TGI [35]: > 86.2 µM
GI50 [36]: 17.6 µM
TGI [36]: > 100 µM
GI50 [37]: 1.54 µM
TGI [37]: > 100 µM
GI50 [38]: 0.351 µM
TGI [38]: > 100 µM
GI50 [39]: 0.806 µM
TGI [39]: > 100 µM
GI50 [40]: 4.64 µM
TGI [40]: > 61.5 µM
GI50 [41]: 2.39 µM
TGI [41]: > 80.9 µM
GI50 [42]: 2.4 µM
TGI [42]: 8.09 µM
GI50 [43]: 0.327 µM
TGI [43]: 1.82 µM
GI50 [44]: 1.46 µM
TGI [44]: > 83.2 µM
GI50 [45]: 4.67 µM
TGI [45]: 42.5 µM
GI50 [46]: 0.5 µM
TGI [46]: 16.1 µM
GI50 [47]: 21.9 µM
TGI [47]: > 100 µM
GI50 [48]: 0.666 µM
TGI [48]: > 100 µM
GI50 [49]: 2.16 µM
TGI [49]: > 100 µM
GI50 [50]: 1.56 µM
TGI [50]: > 24 µM
GI50 [51]: 0.167 µM
TGI [51]: > 100 µM
GI50 [52]: 0.306 µM
TGI [52]: > 100 µM
GI50 [53]: 0.35 µM
TGI [53]: 55.1 µM
GI50 [54]: 21.7 µM
TGI [54]: > 100 µM
GI50 [55]: 0.388 µM
TGI [55]: > 100 µM
GI50 [56]: 17.3 µM
TGI [56]: > 100 µM
GI50 [57]: 0.465 µM
TGI [57]: > 39.6 µM
GI50 [58]: 16.4 µM
TGI [58]: > 93.6 µM
